# ChEMBL document CHEMBL4382217 (Bioorg Med Chem, 2018)
# Legend:
# NCI-H1975 [1] = experiment: Antiproliferative activity against human NCI-H1975 cells harboring EGFR T790M/L858R double mutant after 72 hrs by MTS assay; assay type: functional, cell-based; settings: Homo sapiens, NCI-H1975, 72 h
# [2] = (§1) Antiproliferative activity against human A431 cells harboring WT EGFR after 72 hrs by MTS assay; assay type: cell-based, A-431; settings: human, A431 cells harboring WT EGFR
# [3] = Selectivity index, ratio of GI50 for human A431 cells harboring WT EGFR to GI50 for human NCI-H1975 cells harboring EGFR T790M/L858R double mutant
# A-431 = experiment: as §1; assay type: cell-based; settings: Homo sapiens, A-431, 72 h
# PC-9 [4] = experiment: Antiproliferative activity against human PC9 cells harboring EGFR mutant after 72 hrs by MTS assay; assay type: functional, cell-based; settings: PC-9, 72 h
# HCC827 [5] = experiment: Antiproliferative activity against human HCC827 cells harboring EGFR mutant after 72 hrs by MTS assay; assay type: functional, cell-based; settings: HCC827, 72 h
# [6] = Selectivity index, ratio of IC50 for human A431 cells harboring WT EGFR to IC50 for human NCI-H1975 cells harboring EGFR T790M/L858R double mutant
# Calu-3 = experiment: Antiproliferative activity against human Calu3 cells harboring WT EGFR after 72 hrs by MTS assay; assay type: cell-based; settings: Calu-3, 72 h
# Calu-6 = experiment: Antiproliferative activity against human Calu6 cells harboring WT EGFR after 72 hrs by MTS assay; assay type: cell-based; settings: Calu-6, 72 h
# [7] = Selectivity index, ratio of IC50 for human Calu3 cells harboring WT EGFR to IC50 for human NCI-H1975 cells harboring EGFR T790M/L858R double mutant
# [8] = Selectivity index, ratio of IC50 for human A431 cells harboring WT EGFR to IC50 for human PC9 cells harboring EGFR mutant
# [9] = Selectivity index, ratio of IC50 for human A431 cells harboring WT EGFR to IC50 for human HCC827 cells harboring EGFR mutant
# [10] = Selectivity index, ratio of IC50 for human Calu3 cells harboring WT EGFR to IC50 for human PC9 cells harboring EGFR mutant
# [11] = Selectivity index, ratio of IC50 for human Calu3 cells harboring WT EGFR to IC50 for human HCC827 cells harboring EGFR mutant
# [12] = target: Epidermal growth factor receptor (Homo sapiens, UniProt P00533, L858R/T790M); experiment: Inhibition of recombinant human N-terminal GST-tagged EGFR T790M/L858R double mutant (696-end residues) by fluorescence assay
# [13] = target: Epidermal growth factor receptor (Homo sapiens, UniProt P00533, L858R); experiment: Inhibition of recombinant human GST-tagged EGFR L858R mutant expressed in baculovirus expression system by fluorescence assay
# [14] = target: T1, Epidermal growth factor receptor (Homo sapiens, UniProt P00533); experiment: Inhibition of recombinant human N-terminal GST-tagged EGFR (696-end residues) expressed in baculovirus expression system using Srctide as substrate by fluorescence assay
# Homo sapiens = species on record: Homo sapiens; experiment: Selectivity index, ratio of IC50 for recombinant human N-terminal GST-tagged EGFR (696-end residues) expressed in baculovirus expression system to IC50 for recombinant human N-terminal GST-tagged EGFR T790M/L858R double mutant (696-end residues)
# [15] = target: T1, Epidermal growth factor receptor; experiment: Inhibition of WT EGFR phosphorylation at Y1068 residue in human A431 cells up to 10 uM after 4 hrs by Western blot analysis; assay type: cell-based
# [16] = target: T1, Epidermal growth factor receptor; experiment: Inhibition of WT EGFR in human A431 cells assessed as reduction in ERK phosphorylation at T202/Y204 residues up to 10 uM after 4 hrs by Western blot analysis; assay type: cell-based
# NCI-H1975 [17] = experiment: Antitumor activity against human NCI-H1975 cells harboring EGFR T790M/L858R double mutant xenografted in castrated nude mouse assessed as tumor growth inhibition at 20 mg/kg, po daily for 14 consecutive days measured on day 15 relative to control; assay type: functional; settings: Mus musculus, NCI-H1975, po, 360 h; read-out: TGI
# NCI-H1975 [18] = experiment: Antitumor activity against human NCI-H1975 cells harboring EGFR T790M/L858R double mutant xenografted in castrated nude mouse assessed as tumor growth inhibition at 5 mg/kg, po daily for 14 consecutive days measured on day 15 relative to control; assay type: functional; settings: 360 h, read-out: TGI
# NCI-H1975 [19] = experiment: Antitumor activity against human NCI-H1975 cells harboring EGFR T790M/L858R double mutant xenografted in castrated nude mouse assessed as tumor growth inhibition at 10 mg/kg, po daily for 14 consecutive days measured on day 15 relative to control; assay type: functional; settings: 360 h, read-out: TGI
# NCI-H1975 [20] = experiment: Antitumor activity against human NCI-H1975 cells harboring EGFR T790M/L858R double mutant xenografted in castrated nude mouse assessed as tumor growth inhibition at 40 mg/kg, po daily for 14 consecutive days measured on day 15 relative to control; assay type: functional; settings: 360 h, read-out: TGI
# PC-9 [21] = experiment: Antitumor activity against human PC9 cells harboring EGFR exon-19 del mutant xenografted in castrated nude mouse assessed as tumor growth inhibition at 10 mg/kg, po daily for 14 consecutive days measured on day 15 relative to control; assay type: functional; settings: Mus musculus, PC-9, po, 360 h; read-out: TGI
# PC-9 [22] = experiment: Antitumor activity against human PC9 cells harboring EGFR exon-19 del mutant xenografted in castrated nude mouse assessed as tumor growth inhibition at 2 mg/kg, po daily for 14 consecutive days measured on day 15 relative to control; assay type: functional; settings: PC-9, po, 360 h, read-out: TGI
# PC-9 [23] = experiment: Antitumor activity against human PC9 cells harboring EGFR exon-19 del mutant xenografted in castrated nude mouse assessed as tumor growth inhibition at 5 mg/kg, po daily for 14 consecutive days measured on day 15 relative to control; assay type: functional; settings: PC-9, po, 360 h, read-out: TGI
# PC-9 [24] = experiment: Antitumor activity against human PC9 cells harboring EGFR exon-19 del mutant xenografted in castrated nude mouse assessed as tumor growth inhibition at 20 mg/kg, po daily for 14 consecutive days measured on day 15 relative to control; assay type: functional; settings: PC-9, po, 360 h, read-out: TGI
# HCC827 [25] = experiment: Antitumor activity against human HCC827 cells harboring EGFR exon-19 del mutant xenografted in castrated nude mouse assessed as tumor growth inhibition at 10 mg/kg, po daily for 14 consecutive days measured on day 15 relative to control; assay type: functional; settings: Mus musculus, HCC827, po, 360 h; read-out: TGI
# HCC827 [26] = experiment: Antitumor activity against human HCC827 cells harboring EGFR exon-19 del mutant xenografted in castrated nude mouse assessed as tumor growth inhibition at 0.3 mg/kg, po daily for 14 consecutive days measured on day 15 relative to control; assay type: functional; settings: 360 h, read-out: TGI
# HCC827 [27] = experiment: Antitumor activity against human HCC827 cells harboring EGFR exon-19 del mutant xenografted in castrated nude mouse assessed as tumor growth inhibition at 1 mg/kg, po daily for 14 consecutive days measured on day 15 relative to control; assay type: functional; settings: 360 h, read-out: TGI
# HCC827 [28] = experiment: Antitumor activity against human HCC827 cells harboring EGFR exon-19 del mutant xenografted in castrated nude mouse assessed as tumor growth inhibition at 3 mg/kg, po daily for 14 consecutive days measured on day 15 relative to control; assay type: functional; settings: 360 h, read-out: TGI
# HCC827 [29] = experiment: Antitumor activity against human HCC827 cells harboring EGFR exon-19 del mutant xenografted in castrated nude mouse assessed as tumor growth inhibition administered orally daily for 14 consecutive days measured on day 15; assay type: functional, cell-based
# NCI-H1975 [30] = experiment: Antitumor activity against human NCI-H1975 cells harboring EGFR T790M/L858R double mutant xenografted in castrated nude mouse assessed as tumor growth inhibition administered orally daily for 14 consecutive days measured on day 15; assay type: functional, cell-based
# PC-9 [31] = experiment: Antitumor activity against human PC9 cells harboring EGFR exon-19 del mutant xenografted in castrated nude mouse assessed as tumor growth inhibition administered orally daily for 14 consecutive days measured on day 15; assay type: functional, cell-based
# [32] = Toxicity in castrated nude mouse xenografted with human NCI-H1975 cells assessed as body weight loss at 5 to 40 mg/kg, po daily for 14 consecutive days; assay type: organism-based; settings: in vivo
# [33] = Toxicity in castrated nude mouse xenografted with human PC9 cells assessed as body weight loss at 2 to 20 mg/kg, po daily for 14 consecutive days; assay type: organism-based; settings: in vivo
# [34] = Toxicity in castrated nude mouse xenografted with human HCC827 cells assessed as body weight loss at 0.3 to 10 mg/kg, po daily for 14 consecutive days; assay type: organism-based; settings: in vivo
# T1 sequence (P00533 whole entry): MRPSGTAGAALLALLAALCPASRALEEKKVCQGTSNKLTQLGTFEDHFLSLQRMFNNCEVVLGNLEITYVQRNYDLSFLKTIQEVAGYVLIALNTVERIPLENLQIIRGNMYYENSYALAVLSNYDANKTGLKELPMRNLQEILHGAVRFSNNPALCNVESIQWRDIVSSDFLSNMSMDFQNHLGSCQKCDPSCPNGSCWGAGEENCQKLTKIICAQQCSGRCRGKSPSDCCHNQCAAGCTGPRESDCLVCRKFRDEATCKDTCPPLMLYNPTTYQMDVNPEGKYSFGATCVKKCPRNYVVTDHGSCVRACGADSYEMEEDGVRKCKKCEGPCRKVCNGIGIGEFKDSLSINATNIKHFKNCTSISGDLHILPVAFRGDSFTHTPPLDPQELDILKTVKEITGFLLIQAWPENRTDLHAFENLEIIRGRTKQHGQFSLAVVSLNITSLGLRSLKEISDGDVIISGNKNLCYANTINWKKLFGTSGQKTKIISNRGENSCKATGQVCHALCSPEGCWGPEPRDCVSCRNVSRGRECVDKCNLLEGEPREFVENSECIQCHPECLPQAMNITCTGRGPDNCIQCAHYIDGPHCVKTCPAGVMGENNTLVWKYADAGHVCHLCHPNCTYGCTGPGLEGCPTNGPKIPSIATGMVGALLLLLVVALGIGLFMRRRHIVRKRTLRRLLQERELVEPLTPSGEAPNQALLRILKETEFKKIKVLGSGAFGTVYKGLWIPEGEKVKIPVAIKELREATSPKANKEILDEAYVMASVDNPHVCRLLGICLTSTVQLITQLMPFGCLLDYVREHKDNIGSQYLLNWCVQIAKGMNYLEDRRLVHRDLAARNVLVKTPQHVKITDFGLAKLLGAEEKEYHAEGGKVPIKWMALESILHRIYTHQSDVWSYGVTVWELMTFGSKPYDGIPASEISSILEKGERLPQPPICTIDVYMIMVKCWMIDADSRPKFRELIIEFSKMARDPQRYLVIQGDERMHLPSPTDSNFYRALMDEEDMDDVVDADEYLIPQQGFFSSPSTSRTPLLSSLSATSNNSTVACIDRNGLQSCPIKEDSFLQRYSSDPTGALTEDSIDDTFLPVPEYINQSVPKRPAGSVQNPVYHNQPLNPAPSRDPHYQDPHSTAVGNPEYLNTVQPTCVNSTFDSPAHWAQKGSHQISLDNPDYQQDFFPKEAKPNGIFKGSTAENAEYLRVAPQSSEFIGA
# Sequence of Epidermal growth factor receptor (Homo sapiens, UniProt P00533, L858R) (P00533 25-1210 L858R limits assumed): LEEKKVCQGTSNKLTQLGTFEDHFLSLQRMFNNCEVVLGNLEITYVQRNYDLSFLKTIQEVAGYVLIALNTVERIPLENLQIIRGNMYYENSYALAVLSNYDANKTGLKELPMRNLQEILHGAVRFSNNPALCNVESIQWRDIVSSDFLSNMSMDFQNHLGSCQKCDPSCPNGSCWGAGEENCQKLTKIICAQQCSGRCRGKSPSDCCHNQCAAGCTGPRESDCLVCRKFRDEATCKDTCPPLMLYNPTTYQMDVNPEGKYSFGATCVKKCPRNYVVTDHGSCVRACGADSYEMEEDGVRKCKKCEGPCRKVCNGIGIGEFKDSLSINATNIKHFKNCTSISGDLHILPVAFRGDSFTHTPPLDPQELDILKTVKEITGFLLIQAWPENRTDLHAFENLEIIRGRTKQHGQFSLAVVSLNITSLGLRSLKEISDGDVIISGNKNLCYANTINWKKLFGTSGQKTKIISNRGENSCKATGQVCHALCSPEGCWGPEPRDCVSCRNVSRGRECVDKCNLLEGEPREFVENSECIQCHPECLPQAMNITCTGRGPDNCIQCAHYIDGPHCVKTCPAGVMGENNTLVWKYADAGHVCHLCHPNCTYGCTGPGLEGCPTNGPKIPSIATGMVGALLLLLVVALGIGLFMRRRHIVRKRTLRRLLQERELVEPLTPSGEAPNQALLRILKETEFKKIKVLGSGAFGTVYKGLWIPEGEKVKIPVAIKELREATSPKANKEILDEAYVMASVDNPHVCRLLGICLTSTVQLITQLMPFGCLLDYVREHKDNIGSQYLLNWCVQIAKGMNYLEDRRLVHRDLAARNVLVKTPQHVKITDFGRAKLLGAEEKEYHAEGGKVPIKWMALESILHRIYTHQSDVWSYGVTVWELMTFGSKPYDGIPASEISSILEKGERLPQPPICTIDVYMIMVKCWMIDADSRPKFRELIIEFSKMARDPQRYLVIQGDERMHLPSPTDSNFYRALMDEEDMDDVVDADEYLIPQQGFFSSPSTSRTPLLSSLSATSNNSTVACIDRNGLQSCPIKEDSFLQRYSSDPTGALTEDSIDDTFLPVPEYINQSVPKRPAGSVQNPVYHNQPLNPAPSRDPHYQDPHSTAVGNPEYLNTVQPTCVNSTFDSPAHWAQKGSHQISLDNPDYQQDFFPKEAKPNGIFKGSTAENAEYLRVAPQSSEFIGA
# Sequence of Epidermal growth factor receptor (Homo sapiens, UniProt P00533, L858R/T790M) (P00533 25-1210 T790M/L858R limits assumed): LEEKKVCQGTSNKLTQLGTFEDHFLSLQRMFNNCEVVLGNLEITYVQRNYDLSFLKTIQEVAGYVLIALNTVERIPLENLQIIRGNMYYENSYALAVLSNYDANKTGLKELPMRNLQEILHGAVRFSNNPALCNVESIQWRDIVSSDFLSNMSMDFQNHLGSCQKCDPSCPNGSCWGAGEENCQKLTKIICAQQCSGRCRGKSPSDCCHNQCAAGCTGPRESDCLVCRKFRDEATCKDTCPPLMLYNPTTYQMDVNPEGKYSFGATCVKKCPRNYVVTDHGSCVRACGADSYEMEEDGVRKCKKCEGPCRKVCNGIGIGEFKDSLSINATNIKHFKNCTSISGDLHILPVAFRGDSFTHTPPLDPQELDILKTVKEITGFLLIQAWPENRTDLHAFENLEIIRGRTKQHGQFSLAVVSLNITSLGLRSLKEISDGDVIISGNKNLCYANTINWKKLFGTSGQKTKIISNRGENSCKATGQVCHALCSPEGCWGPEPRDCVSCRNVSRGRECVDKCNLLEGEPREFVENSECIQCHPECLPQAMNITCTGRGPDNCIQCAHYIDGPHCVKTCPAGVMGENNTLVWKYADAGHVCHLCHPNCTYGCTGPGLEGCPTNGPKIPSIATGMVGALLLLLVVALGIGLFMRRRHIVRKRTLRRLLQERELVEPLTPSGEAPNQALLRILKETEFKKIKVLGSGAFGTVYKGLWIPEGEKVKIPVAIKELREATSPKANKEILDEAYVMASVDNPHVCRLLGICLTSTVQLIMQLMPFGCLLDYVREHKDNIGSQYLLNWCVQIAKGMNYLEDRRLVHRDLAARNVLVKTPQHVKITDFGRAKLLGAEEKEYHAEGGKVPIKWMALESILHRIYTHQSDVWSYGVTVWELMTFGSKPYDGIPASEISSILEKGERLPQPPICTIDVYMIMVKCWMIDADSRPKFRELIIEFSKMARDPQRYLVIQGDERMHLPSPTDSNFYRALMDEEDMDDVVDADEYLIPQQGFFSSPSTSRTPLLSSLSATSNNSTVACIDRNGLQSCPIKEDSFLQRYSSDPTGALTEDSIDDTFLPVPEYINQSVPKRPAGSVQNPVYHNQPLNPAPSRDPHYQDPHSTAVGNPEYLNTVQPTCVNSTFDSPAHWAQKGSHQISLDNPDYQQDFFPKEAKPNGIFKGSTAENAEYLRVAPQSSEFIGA
smiles,measurement,setting,value
C=CC(=O)Nc1cc(Nc2nccc(-c3cn(C)c4cccnc34)n2)c(OC)cc1N1CCN(C)CC1,GI50,NCI-H1975 [1],0.175 µM
same,GI50 at 72 h,[2],1.56 µM
same,RatioGI50,[3],8.9
C=CC(=O)Nc1cc(Nc2nccc(-c3noc4ccccc34)n2)c(OC)cc1N(C)CCN(C)C,GI50,NCI-H1975 [1],0.0073 µM
same,GI50 at 72 h,[2],0.11 µM
same,RatioGI50,[3],15.1
C=CC(=O)Nc1cc(Nc2nccc(-c3cn(C)c4cccnc34)n2)c(OC(F)F)cc1N1CCC[C@H]1CN(C)C,GI50,NCI-H1975 [1],0.184 µM
same,GI50 at 72 h,[2],0.724 µM
same,RatioGI50,[3],3.9
C=CC(=O)Nc1cc(Nc2nccc(-c3noc4ccccc34)n2)c(OC)cc1N1CCC[C@H]1CN(C)C,GI50,NCI-H1975 [1],0.844 µM
same,GI50 at 72 h,[2],> 10 µM
same,RatioGI50,[3],>75.1
C=CC(=O)Nc1cc(Nc2nccc(-c3cn(C)c4cccnc34)n2)c(OC(F)F)cc1N(C)CCN(C)C,GI50,NCI-H1975 [1],0.0067 µM
same,GI50 at 72 h,[2],0.296 µM
same,RatioGI50,[3],44.1
C=CC(=O)Nc1cc(Nc2nccc(-c3noc4ccccc34)n2)c(OC(F)F)cc1N1CCC[C@H]1CN(C)C,GI50,NCI-H1975 [1],0.285 µM
same,GI50 at 72 h,[2],1 µM
same,RatioGI50,[3],3.5
C=CC(=O)Nc1cc(Nc2nccc(-c3nn(C)c4ccsc34)n2)c(OC)cc1N(C)CCN(C)C,GI50,NCI-H1975 [1],0.0107 µM
same,GI50 at 72 h,[2],0.209 µM
same,RatioGI50,[3],19.5
C=CC(=O)Nc1cc(Nc2nccc(-c3noc4ccccc34)n2)c(OC)cc1N1CCN(C)CC1,GI50,NCI-H1975 [1],0.168 µM
same,GI50 at 72 h,[2],0.728 µM
same,RatioGI50,[3],4.3
C=CC(=O)Nc1cc(Nc2nccc(-c3cn(C)c4cccnc34)n2)c(OC)cc1N(C)CCN(C)C,GI50,NCI-H1975 [1],0.0068 µM
same,IC50,NCI-H1975 [1],0.14 µM
same,GI50 at 72 h,[2],0.5 µM
same,IC50,A-431,3.29 µM
same,RatioGI50,[3],73.5
same,IC50,PC-9 [4],0.2 µM
same,IC50,HCC827 [5],0.015 µM
same,Ratio IC50,[6],23.5
same,IC50,Calu-3,> 10 µM
same,IC50,Calu-6,> 10 µM
same,Ratio IC50,[7],71.4
same,Ratio IC50,[8],16.5
same,Ratio IC50,[9],219.3
same,Ratio IC50,[10],50
same,Ratio IC50,[11],666.7
same,IC50,[12],2.1 µM
same,IC50,[13],5.5 µM
same,IC50,[14],63 µM
same,Ratio IC50,Homo sapiens,30
same,inhibition (INH),[15],Not Active
same,inhibition (INH),[16],Not Active
same,inhibition in vivo at 20 mg/kg,NCI-H1975 [17],99%
same,inhibition in vivo at 5 mg/kg,NCI-H1975 [18],48%
same,inhibition in vivo at 10 mg/kg,NCI-H1975 [19],84%
same,inhibition in vivo at 40 mg/kg,NCI-H1975 [20],106%
same,inhibition in vivo at 10 mg/kg,PC-9 [21],104%
same,inhibition in vivo at 2 mg/kg,PC-9 [22],67%
same,inhibition in vivo at 5 mg/kg,PC-9 [23],94%
same,inhibition in vivo at 20 mg/kg,PC-9 [24],107%
same,inhibition in vivo at 10 mg/kg,HCC827 [25],125%
same,inhibition in vivo at 0.3 mg/kg,HCC827 [26],74%
same,inhibition in vivo at 1 mg/kg,HCC827 [27],83%
same,inhibition in vivo at 3 mg/kg,HCC827 [28],119%
same,TGI,HCC827 [29],Dose-dependent effect
same,TGI,NCI-H1975 [30],Dose-dependent effect
same,TGI,PC-9 [31],Dose-dependent effect
same,Activity,[32],Non-Toxic
same,Activity,[33],Non-Toxic
same,Activity,[34],Non-Toxic
